1 compound from patent US8647657B2, “Polymeric devices for controlled release of active agents” (Durect Corporation, priority 2003, dated 2014) can be followed below.

The subject of one test is LH. In words: Blood level of LH after time-released leuprolide acetate device. The class given is in vivo, human. How it is done:
(§1) For example, a 30 mg time-released dose of leuprolide acetate can be administered to an adult subject. The leuprolide acetate active agent is provided in a biodegradable polymer system to supply a polymeric device for controlled release of the active agent. […] The leuprolide acetate active agent is incorporated within the polymer system such that the polymer system provides for controlled release of the agent from the device. When the device is administered to the subject, for example, when it is implanted, the device releases the active agent in a controlled fashion without a lag period, or with a minimal lag period. In this manner, the leuprolide can be gradually released over a period of several months. After a period of two weeks, the subject's blood level of LH may be undetectable and the subject's blood level of FSH may be approximately 5 mIU/mL.
(§2) In another example, a dose of 1.88 mg time-released dose of leuprolide acetate can be administered to a subject. The leuprolide acetate active agent is provided in a biodegradable polymer system to supply a polymeric device for controlled release of the active agent. […] The leuprolide acetate active agent is incorporated within the polymer system such that the polymer system provides for controlled release of the agent from the device. […]

In another test the test system is FSH. Description: Blood level of FSH after time-released leuprolide acetate device. The class given is in vivo, human. As to the method: as §1, §2
[1] abbreviates: 1.88 mg time-released dose in polymeric device, released over approximately one month.
The mark [2] stands for this setting: 30 mg time-released dose in polymeric device, adult subject, after two weeks.

In the case of `CCNC(=O)[C@@H]1CCCN1C(=O)[C@H](CCCNC(=N)N)NC(=O)[C@H](CC(C)C)NC(=O)[C@@H](CC(C)C)NC(=O)[C@H](Cc1ccc(O)cc1)NC(=O)[C@H](CO)NC(=O)[C@H](Cc1c[nH]c2ccccc12)NC(=O)[C@H](Cc1c[nH]cn1)NC(=O)[C@@H]1CCC(=O)N1` [leuprolide acetate], the LH blood levels result in the test on LH (setting [1]) was “undetectable levels”. In the test with LH (setting [2]), the “blood level of LH” value is given as “undetectable”. Also, in the test on FSH (setting [1]), the FSH blood levels entry is given as “undetectable levels”. In the test with FSH (setting [2]), the “blood level of FSH” value is reported as “approximately 5 mIU/mL”.
